Tested on: IGROV1 complex spheroids (HUVEC, MSC), viability % test/control
Assay: Anticancer human tumor IGROV1 cell line growth inhibition [GQUAD];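 note: spheroids exposed to compounds for 7 days before readout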
Settings: for IC50: curve of first compound; for viability, T/C: stronger effect = lower value
Text: DNA G-quadruplex Stabilizer Agents in Combinations in Complex Spheroids
A high-throughput screen of multi-cell type tumor spheroids was designed to identify active combinations of DNA G-quadruplex stabilizer agents and targeted small molecules. Complex spheroids include a stromal component modeled by human endothelial cells (HUVEC) and fibroblasts modeled by human mesenchymal stem cells (MSCs). The concentration ranges selected for each drug and investigational agent were based upon clinically achievable concentrations if the clinical Cmax of the agent was known.
Compounds. The drugs and investigational agents: pidnarulex (CX-5461; NSC782164), APTO-253 (NSC789042), BRACO-19 (NSC847499), peposertib (NSC802822), ceralasertib (NSC780249), elimusertib (NSC800525), camonsertib (NSC841442), AZD-1390 (NSC803789), olaparib (NSC753686), talazoparib (NSC767125), ART-558 (NSC835418), sotorasib (NSC818433), MRTX-1133 (NSC836407), SN-38 (NSC673596), topotecan (NSC609699), etoposide (NSC141540), doxorubicin (NSC123127), gemcitabine (NSC613327), 5-fluorouracil (NSC19893), paclitaxel (NSC125973), vemurafenib (NSC761431), panobinostat (NSC761190), R-306465 (JNJ-16241199; NSC773264), adavosertib (NSC754352), TP-3654 (NSC805149), carboplatin (NSC241240), KSQ-4279 (NSC840948), and staurosporine (NSC755774) were obtained from the National Cancer Institute (NCI) Developmental Therapeutics Program Chemical Repository (34). The FDA-approved anticancer drug set is available from the NCI Developmental Therapeutics Program. […] The stock solutions were prepared in dimethyl sulfoxide (DMSO, Sigma-Aldrich, St. Louis, MO, cat. D2650) at 800-fold the tested concentration and stored at -70 degrees C prior to their use. All drugs and investigational agents were tested over a range starting from a high concentration at or near the clinical Cmax and decreasing in half-log increments. If the clinical Cmax for an agent had not been determined, the highest concentration tested was 10 microM.
2.3 Cell Culture. All cells were maintained in an incubator at 37 degrees C and 5% CO2 with 95% humidity. The PDC lines were cultured according to standard operating procedures established by the NCI PDMR. All PDCs were thawed and cultured in Matrigel-coated flasks prepared with a working solution of 1X Ham's F-12 nutrient mix, without supplementation (Invitrogen, cat. 11765054), 100 U/mL penicillin-streptomycin (Invitrogen, cat. 15140122), and 2.5% Matrigel (Corning Inc., cat. 354248) for the first three passages. The 857933-349-R-J2-PDC line was cultured in 6C/Colon 1B media, which includes advanced DMEM/F-12 (Thermo Fisher Scientific, cat. 12634028), 10 mM HEPES (Thermo Fisher Scientific, cat. 15630080), 1X GlutaMAX supplement (Thermo Fisher Scientific, cat. 35050061), 0.1 mg/mL primocin (InvivoGen, cat. ant-pm-2), 10% defined fetal bovine serum, heat inactivated (HyClone Laboratories Inc., cat. SH30070.03HI), 50% L-WRN conditioned media (ATCC, cat. CRL-3276), 1.25 mM N-Acetyl-L-cysteine (Sigma-Aldrich, cat. A9165), 10 mM nicotinamide (Sigma-Aldrich, cat. N0636), 1X B-27 supplement (Thermo Fisher Scientific, cat. 17504044), 1X N-2 supplement (Thermo Fisher Scientific, cat. 17502048), 10 microM Y-27632 dihydrochloride (Tocris Bioscience, cat. 1254), and 50 ng/mL human EGF recombinant protein (Thermo Fisher Scientific, cat. PHG0311). The 485176-168-R4-J1-PDC line was cultured in Panc media, which includes all 6C/Colon 1B media components plus 100 ng/mL human FGF-10 (Thermo Fisher Scientific, cat. 100-26), 500 nM SB-431542 (Selleckchem, cat. S1067), and gastrin (Tocris, cat. 3006).
[…]

[1] = second compound 0.0316 µM, first compound 0.0316 µM
[2] = second compound 0.0316 µM, first compound 0.1 µM
[3] = second compound 0.0316 µM, first compound 0.316 µM
[4] = second compound 0.0316 µM, first compound 1 µM
[5] = second compound 0.0316 µM, first compound 3.16 µM
[6] = second compound 0.0316 µM, first compound 10 µM
[7] = second compound 0.1 µM, first compound 0.0316 µM
[8] = second compound 0.1 µM, first compound 0.1 µM
[9] = second compound 0.1 µM, first compound 0.316 µM
[10] = second compound 0.1 µM, first compound 1 µM
[11] = second compound 0.1 µM, first compound 3.16 µM
[12] = second compound 0.1 µM, first compound 10 µM
[13] = second compound 0.316 µM, first compound 0.0316 µM
[14] = second compound 0.316 µM, first compound 0.1 µM
[15] = second compound 0.316 µM, first compound 0.316 µM
[16] = second compound 0.316 µM, first compound 1 µM
[17] = second compound 0.316 µM, first compound 3.16 µM
[18] = second compound 0.316 µM, first compound 10 µM
[19] = second compound 1 µM, first compound 0.0316 µM
[20] = second compound 1 µM, first compound 0.1 µM
[21] = second compound 1 µM, first compound 0.316 µM
[22] = second compound 1 µM, first compound 1 µM
[23] = second compound 1 µM, first compound 3.16 µM
[24] = second compound 1 µM, first compound 10 µM
[25] = second compound 3.16 µM, first compound 0.0316 µM
[26] = second compound 3.16 µM, first compound 0.1 µM
[27] = second compound 3.16 µM, first compound 0.316 µM
[28] = second compound 3.16 µM, first compound 1 µM
[29] = second compound 3.16 µM, first compound 3.16 µM
[30] = second compound 3.16 µM, first compound 10 µM
[31] = second compound 10 µM, first compound 0.0316 µM
[32] = second compound 10 µM, first compound 0.1 µM
[33] = second compound 10 µM, first compound 0.316 µM
[34] = second compound 10 µM, first compound 1 µM
[35] = second compound 10 µM, first compound 3.16 µM
[36] = second compound 10 µM, first compound 10 µM

In the case of `COc1ncnc(C2CC2)c1-c1ncc2cnn(Cc3ccc(-c4nc(C(F)(F)F)cn4C(C)C)cc3)c2n1` + CN(C)c1ccc(Nc2c3ccc(NC(=O)CCN4CCCC4)cc3nc3cc(NC(=O)CCN4CCCC4)ccc23)cc1, the IC50 (second compound 0.0316 µM) is reported as over 10000 nM, the IC50 (second compound 0.1 µM) is reported as over 10000 nM and the IC50 (second compound 0.316 µM) is reported as over 10000 nM. It also gave an IC50 (second compound 1 µM) of over 10000 nM, an IC50 (second compound 3.16 µM) of over 10000 nM and an IC50 (second compound 10 µM) of 237 nM. For the same molecule, the viability, T/C [1] was 93.5%, the viability, T/C [2] was 99% and the viability, T/C [3] was 95.3%. The viability, T/C [4] was 89.2%, the viability, T/C [5] was 104% and the viability, T/C [6] was 83.2%. For the same molecule, the viability, T/C [7] was 86.9%, the viability, T/C [8] was 93% and the viability, T/C [9] was 94.1%. The viability, T/C [10] was 78.2%, the viability, T/C [11] was 100% and the viability, T/C [12] was 82.2%. It also gave a viability, T/C [13] of 77.3%, a viability, T/C [14] of 88.4% and a viability, T/C [15] of 103%. The viability, T/C [16] was 79.2%, the viability, T/C [17] was 93.2% and the viability, T/C [18] was 82.2%. It also gave a viability, T/C [19] of 66.5%, a viability, T/C [20] of 89.1% and a viability, T/C [21] of 98.7%. For the same molecule, the viability, T/C [22] was 74%, the viability, T/C [23] was 83.4% and the viability, T/C [24] was 80.9%. The viability, T/C [25] was 52.1%, the viability, T/C [26] was 69.2% and the viability, T/C [27] was 75.3%. For the same molecule, the viability, T/C [28] was 88.8%, the viability, T/C [29] was 75% and the viability, T/C [30] was 62.5%. For the same molecule, the viability, T/C [31] was 50%, the viability, T/C [32] was 53% and the viability, T/C [33] was 51.5%. The viability, T/C [34] was 41.6%, the viability, T/C [35] was 37.7% and the viability, T/C [36] was 9.91%.

Molecule `O=C(NO)c1cnc(N2CCN(S(=O)(=O)c3ccc4ccccc4c3)CC2)nc1` + CN(C)c1ccc(Nc2c3ccc(NC(=O)CCN4CCCC4)cc3nc3cc(NC(=O)CCN4CCCC4)ccc23)cc1 has an IC50 (second compound 0.0316 µM) of 60.1 nM, an IC50 (second compound 0.1 µM) of 63.6 nM and an IC50 (second compound 0.316 µM) of 55.6 nM. It also gave an IC50 (second compound 1 µM) of 41.4 nM, an IC50 (second compound 3.16 µM) of 47.2 nM and an IC50 (second compound 10 µM) of under 31.6 nM. The viability, T/C [1] was 69.9%, the viability, T/C [2] was 34.2% and the viability, T/C [3] was 4.85%. It also gave a viability, T/C [4] of 0.26%, a viability, T/C [5] of 0.09% and a viability, T/C [6] of 0.1%. For the same molecule, the viability, T/C [7] was 74.8%, the viability, T/C [8] was 33.9% and the viability, T/C [9] was 4.46%. For the same molecule, the viability, T/C [10] was 0.26%, the viability, T/C [11] was 0.07% and the viability, T/C [12] was 0.09%. It also gave a viability, T/C [13] of 66.6%, a viability, T/C [14] of 32.6% and a viability, T/C [15] of 5.36%. For the same molecule, the viability, T/C [16] was 0.25%, the viability, T/C [17] was 0.06% and the viability, T/C [18] was 0.08%. The viability, T/C [19] was 58%, the viability, T/C [20] was 23.6% and the viability, T/C [21] was 3.31%. It also gave a viability, T/C [22] of 0.23%, a viability, T/C [23] of 0.06% and a viability, T/C [24] of 0.08%. For the same molecule, the viability, T/C [25] was 64.3%, the viability, T/C [26] was 23.4% and the viability, T/C [27] was 3.69%. It also gave a viability, T/C [28] of 0.27%, a viability, T/C [29] of 0.07% and a viability, T/C [30] of 0.08%. For the same molecule, the viability, T/C [31] was 45.4%, the viability, T/C [32] was 14.4% and the viability, T/C [33] was 3.73%. It also gave a viability, T/C [34] of 0.21%, a viability, T/C [35] of 0.12% and a viability, T/C [36] of 0.11%.
